# From patent EP4635954A1, “INDUCER FOR INDUCING MESENCHYMAL-EPITHELIAL TRANSITION AND REPROGRAMMING” (Iregene Therapeutics Co., Ltd, priority 2022, dated 2024)
# Biological target: miR-145
# Test: Isothermal titration calorimetry (ITC), Nano-ITC
# Format: binding
# Conditions: Multiple Sites model, 50 µM miR-145 in cell, 500 µM ligand in syringe
# Text: Isothermal titration calorimetry (ITC) operates based on the principle of power compensation and allows accurate determination of the enthalpy change associated with molecular interactions across a broad concentration range using a single titration experiment. It measures the heat change upon binding and provides a complete thermodynamic profile of nucleic acid-ligand interactions. Quantitative thermodynamic characterization of the complex is essential for understanding the molecular basis of the interaction between the microRNA miR-145 and the small molecule compound. In this invention, the Nano-ITC calorimeter from Waters Corporation was used to validate in vitro the interaction between nucleic acid and small molecule compounds. The experimental procedure involved placing 300 µL of singlestranded miR-145 solution at a concentration of 50 µM into a temperature-controlled sample cell, which was thermally coupled via a thermocouple circuit to a reference cell containing an equal volume of deionized water. As an example, the small molecule A-3-6 was prepared at a concentration of 500 µM and a volume of 50 µL, and loaded into the injection syringe as the ligand. The heat change in the sample cell was measured and balanced against the reference cell, appearing as either endothermic or exothermic peaks. […]
structure (smiles),measurement,setting,value
"O=C(Cc1ccccc1)Nc1cc2cc[nH]c2cn1 [Compound A-3-6, 2-Phenyl-N-(1H-pyrrolo[2,3-c]pyridin-5-yl)acetamide]",Kd,site with nSite 1.8,7.54 nM
same,Kd,site with nSite 3,70.2 nM
